The record followed here is article PMC8400920, “Metabolism of Diterpenoids Derived from the Bark of Cinnamomum cassia in Human Liver Microsomes” (Pharmaceutics, 2021).

Entries after “also recorded” stand apart in the source; their conditions may differ.

One series deals with T1, CYP3A4 (Homo sapiens, UniProt P08684).
T1 construct: purchased Corning Gentest
The series can be described thus: AHC metabolism by recombinant cDNA-expressed CYP isoform. The series is classed as in vitro ADME. To be noted: 10 µM AHC, 10 pmol recombinant CYP3A4, NGS, 37 °C, 60 min. As for the experimental part:
To identify the metabolic enzymes for AHC, 10 µM AHC was incubated with 10 pmol of human recombinant cDNA-expressed CYP isoforms (CYP1A1, 1A2, 2A6, 2B6, 2C8, 2C9, 2C19, 2D6, 2E1, 3A4, and 3A5) in the presence of 0.1 M potassium phosphate buffer (pH 7.4). The reaction was initiated by adding 100 µL of NGS at 37 °C for 60 min. Then, the mixture was suspended by adding 400 µL of ice-cold 100% ACN. Following centrifugation at 15,700× g for 10 min at 4 °C, the supernatant was transferred to a new tube and evaporated using a speed-vacuum concentrator. Next, the dried sample was diluted with 100 µL of 20% MeOH containing 0.1% formic acid, and a 5 µL aliquot was injected into a C18 column for LC–MS/MS analysis.
To identify the CYP isoforms involved in AHC metabolism, AHC (10 µM) was incubated with eleven cDNA-expressed recombinant CYP isoforms (CYP1A1, CYP1A2, CYP2A6, CYP2B6, CYP2C8, CYP2C9, CYP2C19, CYP2D6, CYP2E1, CYP3A4, and CYP3A5) in the presence of the NGS. […] However, the metabolites of AHC were not observed from reactions with other CYPs. Thus, in the metabolism of AHC in HLMs, CYP3A4 was involved as the main enzyme, and four types of metabolites were generated.

For series [1], the system named is human liver microsomes (HLMs). The series can be described thus: Metabolic stability of seven diterpenoids in human liver microsomes. The series is classed as in vitro ADME. To be noted: 10 µM, 0.5 mg/mL HLMs, 37 °C, 60 min. As for the experimental part:
For metabolism profiling, 10 µM of each of the seven compounds isolated from C. cassia bark was added to 0.5 mg/mL of pooled HLMs and 0.1 M potassium phosphate buffer (pH 7.4). The HLMs were then preincubated at 37 °C for 1 min. After adding NGS, the reaction mixture was incubated at 37 °C for 60 min. After the 60 min incubation period, 50 µL of the reaction mixture was transferred to a new tube, and 50 µL of 100% ACN containing 0.1% formic acid and tolbutamide (internal standard) was added to terminate the reaction. The mixture was then vortexed, followed by centrifugation at 15,700× g (13,000 rpm) for 10 min (Eppendorf AG, Hamburg, Germany). Finally, 90 µL of the supernatant was transferred to a vial and injected into a C18 column for LC–MS/MS analysis.
The metabolism screening of the seven compounds was performed using an HPLC system (Thermo Fisher Scientific, Bremen, Germany) equipped with an HPG-3200SD standard binary pump, a WPS-3000 TRS analytical autosampler, and a TCC-3000 SD column compartment. The HPLC system was coupled with an HR-MS (Q-Exactive Focus Quadrupole-Orbitrap MS; Thermo Fisher Scientific, Waltham, MA, USA) at the Mass Spectrometry Convergence Research Center. The full MS resolution and scan ranges were 70,000 and 60–900 m/z, respectively. The MS/MS resolution was 35,000. The mass spectra were obtained in negative ion electrospray mode. A heated electrospray ionization (HESI-II) probe was used as an ion generator, with nitrogen as the sheath gas at 35 aux units and auxiliary gas at 12 aux units. The mass spectrometer was operated in negative ionization mode. The other parameters were as follows: spray voltage, 3.5 kV; capillary temperature, 320 °C; S-lens radio frequency level, 50; and aux gas heater temperature, 400 °C.
The mobile phase consisted of 100% water with 0.1% formic acid (mobile phase A) and 100% ACN with 0.1% formic acid (mobile phase B). For metabolic stability, the gradient conditions were set as follows: 5% of B at 0.5–2.0 min, 5–50% of B at 2.0–4.5 min, 50% of B at 4.5–7.0 min, and 50–5% of B at 7.0–10.0 min at 40 °C with a flow rate of 0.2 mL/min. For metabolite identification, the gradient conditions were as follows: 10% of B at 0–5 min, 10–55% of B at 5–15 min, 55% of B at 15–23 min, and 55–10% of B at 23–30 min with a flow rate of 0.25 mL/min. Chromatographic separation was performed using a Kinetex C18 column (150 × 2.1 mm, 2.6 μm, XB-C18 100 Å, S/No: H19-070128; Phenomenex, Torrance, CA, USA). Data were analyzed using Xcalibur version 4.0 software (Thermo Fisher Scientific, Waltham, MA, USA).
To confirm their metabolic stability, seven diterpenoids (AHC, anhydrocinnzeylanol, cinncassiol A, cinncassiol B, cinnzeylanol, cinnzeylanone, and cinnzeylanine) derived from the bark of C. cassia were incubated with HLMs in the presence of the NGS for 60 min (Figure 1B). The metabolic stability of each compound was determined according to the ratio of the peak area at 60 min to that at 0 min. […] Therefore, we identified the metabolites of AHC produced in HLMs.
A general note: Liver microsomes are a subcellular fraction often used to study metabolism.

For another series, the system named is CYPs. As to the kind of experiment: Metabolism of AHC in HLMs with SKF-525A, a nonselective CYP inhibitor. In kind it is in vitro ADME, human. To be noted: 10 µM AHC, 1 mg/mL HLMs, NGS, 60 min, depending on SKF-525A concentration. As for the experimental part:
To investigate CYP-mediated metabolism, 10 µM AHC was mixed with 1 mg/mL pooled HLMs and 0.1 M potassium phosphate buffer (pH 7.4). Then, SKF-525A, a general inhibitor of CYPs, was added at concentrations of 0.5, 1, and 5 mM. The reactions were initiated with the addition of NGS at […] for 60 min. After 60 min, the reactions were terminated by adding 400 µL of 100% acetonitrile. The mixtures were then centrifuged at 15,700× g for 10 min. Subsequently, 550 µL of supernatant was dried in a vacuum concentrator. The residue was dissolved in 100 µL of 20% MeOH (0.1% formic acid), and 5 µL of this sample was injected into a C18 column for LC–MS/MS analysis.
To confirm the metabolism of AHC by CYP enzymes, AHC was incubated in HLMs with SKF-525A, i.e., a nonspecific CYP inhibitor (Figure S7). […] Consequently, as the metabolism of AHC was inhibited by SKF-525A treatment, the production of all metabolites was reduced in an SKF-525A concentration-dependent manner.

T1 sequence (P08684 whole entry): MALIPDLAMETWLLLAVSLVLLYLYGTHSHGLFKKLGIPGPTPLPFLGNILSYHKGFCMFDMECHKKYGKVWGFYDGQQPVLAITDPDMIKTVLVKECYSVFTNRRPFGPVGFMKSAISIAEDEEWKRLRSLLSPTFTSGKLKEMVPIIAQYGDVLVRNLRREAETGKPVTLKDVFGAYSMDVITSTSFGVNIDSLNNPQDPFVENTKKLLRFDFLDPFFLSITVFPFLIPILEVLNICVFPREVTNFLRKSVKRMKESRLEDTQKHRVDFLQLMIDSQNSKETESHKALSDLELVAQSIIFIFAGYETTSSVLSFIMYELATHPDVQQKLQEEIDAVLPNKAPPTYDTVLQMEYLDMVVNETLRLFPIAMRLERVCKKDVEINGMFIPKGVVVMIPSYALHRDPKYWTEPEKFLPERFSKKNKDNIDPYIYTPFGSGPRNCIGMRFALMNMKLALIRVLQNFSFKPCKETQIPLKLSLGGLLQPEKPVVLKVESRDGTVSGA

On to `CC(=O)O[C@@H]1[C@@H](C)CC[C@]2(O)[C@]3(C)CC(=O)O[C@]12[C@@]1(O)C(C)=C(C(C)C)C[C@@]31O` [AHC, anhydrocinnzeylanine], for which, at CYP3A4, the “metabolism of AHC by CYP3A4” value is on record as “major CYP responsible for the metabolism of AHC; also recorded: predominantly metabolized by CYP3A4”. For the same compound, in series [1] (NGS), the “metabolic stability in HLMs (in words)” value is “most rapid metabolization; also recorded: unique reduction in metabolic stability; also recorded: highest metabolic rate”. Besides, the “parent remaining after metabolism in HLMs (metabolized to)” value in series [1] (β-NADPH) came to 3%. Besides, the “residual amount of AHC after reaction with SKF-525A” value with CYPs is “significantly increased”.
